Results: ChEMBL document CHEMBL1201862, “PubChem BioAssay data set” (2004)
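Dose response: 5 concentrations. Exposure: 48 h. Format: 96-well plates. Endpoint: linear interpolation; highest concentration if not reached. GI50: concentration for 50% inhibition of growth.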 Activity calls are given as the source filed them. No stated cut-off is given here; in the data, active = GI50 up to about 1.1 µM and inactive = higher.

Assays:
Assay in all cases: DTP human tumour cell line panel, 48 h
ACHN = system: ACHN
M19-MEL = system: M19-MEL
SNB-75 = system: SNB-75
SK-MEL-28 = system: SK-MEL-28
A498 = system: A498
MOLT-4 = system: MOLT-4
Malme-3M = system: Malme-3M
OVCAR-8 = system: OVCAR-8
SF-539 = system: SF-539
NCI-H460 = system: NCI-H460
786-0 = system: 786-0
CAKI-1 = system: CAKI-1
NCI-H226 = system: NCI-H226
SK-OV-3 = system: SK-OV-3
DMS-114 = system: DMS-114
HCC 2998 = system: HCC 2998

Measured: GI50

CCOC(=O)CNC(=O)c1nc[nH]c1/N=N/N(C)C
inactive: ACHN > 100 µM | M19-MEL > 100 µM | SNB-75 > 100 µM | SK-MEL-28 > 100 µM | A498 > 100 µM | MOLT-4 > 100 µM | Malme-3M > 100 µM | OVCAR-8 > 100 µM | SF-539 > 100 µM | NCI-H460 > 100 µM | 786-0 > 100 µM | CAKI-1 > 100 µM | NCI-H226 > 100 µM | SK-OV-3 > 100 µM | DMS-114 > 100 µM | HCC 2998 > 100 µM

CC1=C/C(=C2/N=C(N(C)C)SS2)C(C)=N1.[O-][Cl+3]([O-])([O-])O
inactive: ACHN > 100 µM | M19-MEL 10.6 µM | SNB-75 > 100 µM | SK-MEL-28 > 100 µM | A498 > 100 µM | MOLT-4 > 100 µM | Malme-3M 21.8 µM | OVCAR-8 > 100 µM | SF-539 > 100 µM | NCI-H460 > 100 µM | 786-0 > 100 µM | CAKI-1 > 100 µM | NCI-H226 > 100 µM | SK-OV-3 > 100 µM | DMS-114 > 100 µM | HCC 2998 > 100 µM

CC1(C)OC2COC3(CNO)OC(C)(C)OC3C2O1 (stereo unspecified)
inactive: ACHN > 100 µM | M19-MEL > 100 µM | SNB-75 > 100 µM | SK-MEL-28 > 100 µM | A498 > 100 µM | MOLT-4 > 100 µM | Malme-3M > 100 µM | OVCAR-8 > 100 µM | SF-539 > 100 µM | NCI-H460 > 100 µM | 786-0 > 100 µM | CAKI-1 > 100 µM | NCI-H226 > 100 µM | SK-OV-3 > 100 µM | DMS-114 > 100 µM | HCC 2998 > 100 µM

N=C(N)NS(=O)(=O)c1ccc(NC(=O)c2cccn3c(=O)c4ccccc4nc23)cc1
inactive: ACHN 81.8 µM | M19-MEL 31.4 µM | SNB-75 > 100 µM | SK-MEL-28 91 µM | A498 > 100 µM | MOLT-4 25.5 µM | Malme-3M > 100 µM | OVCAR-8 84.5 µM | SF-539 > 100 µM | NCI-H460 53.1 µM | 786-0 > 100 µM | CAKI-1 > 100 µM | NCI-H226 44.8 µM | SK-OV-3 > 100 µM | DMS-114 40.6 µM | HCC 2998 85.7 µM

COc1ccc(OC)c2c(C(=O)O)c(Cc3ccccc3)ccc12
inactive: ACHN > 100 µM | M19-MEL > 100 µM | SNB-75 > 100 µM | SK-MEL-28 > 100 µM | A498 > 100 µM | MOLT-4 > 100 µM | Malme-3M > 100 µM | OVCAR-8 > 100 µM | NCI-H460 > 100 µM | 786-0 > 100 µM | CAKI-1 > 100 µM | NCI-H226 > 100 µM | SK-OV-3 > 100 µM | DMS-114 > 100 µM | HCC 2998 > 100 µM

O=S(=O)(SCc1ccccc1)C(c1ccccc1)c1ccccc1
inactive: ACHN 37.8 µM | M19-MEL 32.4 µM | SNB-75 30.3 µM | SK-MEL-28 48.3 µM | A498 29.6 µM | MOLT-4 3.7 µM | Malme-3M 36.1 µM | OVCAR-8 19.8 µM | SF-539 17.2 µM | NCI-H460 37 µM | 786-0 31.6 µM | CAKI-1 31 µM | NCI-H226 22.5 µM | SK-OV-3 > 100 µM | DMS-114 19.3 µM | HCC 2998 > 100 µM

C(=C\c1cc(CCc2nc3ccccc3[nH]2)n[nH]1)/c1ccccc1
inactive: ACHN > 100 µM | M19-MEL > 100 µM | SNB-75 > 100 µM | SK-MEL-28 > 100 µM | A498 > 100 µM | MOLT-4 > 100 µM | Malme-3M > 100 µM | OVCAR-8 > 100 µM | SF-539 > 100 µM | NCI-H460 > 100 µM | 786-0 > 100 µM | CAKI-1 > 100 µM | NCI-H226 > 100 µM | SK-OV-3 > 100 µM | DMS-114 > 100 µM | HCC 2998 > 100 µM

COC1C=C(Nc2cccc(Cl)c2)C(=O)C1 (stereo unspecified)
inactive: ACHN 60 µM | M19-MEL > 100 µM | SNB-75 43.9 µM | SK-MEL-28 > 100 µM | A498 15.7 µM | MOLT-4 49.3 µM | Malme-3M > 100 µM | OVCAR-8 96.2 µM | SF-539 58.2 µM | NCI-H460 44.4 µM | 786-0 > 100 µM | CAKI-1 50.9 µM | NCI-H226 36.4 µM | SK-OV-3 48.8 µM | DMS-114 34.3 µM | HCC 2998 53.8 µM

COC(=O)C(CC(=O)c1ccccc1)c1ccccc1NC(C)=O (stereo unspecified)
inactive: ACHN > 100 µM | M19-MEL > 100 µM | SNB-75 87.1 µM | SK-MEL-28 > 100 µM | A498 > 100 µM | MOLT-4 > 100 µM | Malme-3M > 100 µM | OVCAR-8 > 100 µM | SF-539 > 100 µM | NCI-H460 > 100 µM | 786-0 > 100 µM | CAKI-1 > 100 µM | NCI-H226 > 100 µM | SK-OV-3 > 100 µM | DMS-114 > 100 µM | HCC 2998 > 100 µM

COc1cc2c(cc1OC)C1[C@@H](c3ccccc3)OCN1CC2 (stereo partly specified)
inactive: ACHN > 100 µM | M19-MEL > 100 µM | SNB-75 60.8 µM | SK-MEL-28 > 100 µM | A498 > 100 µM | MOLT-4 > 100 µM | Malme-3M > 100 µM | OVCAR-8 > 100 µM | SF-539 > 100 µM | NCI-H460 > 100 µM | 786-0 > 100 µM | CAKI-1 > 100 µM | NCI-H226 > 100 µM | SK-OV-3 > 46 µM | DMS-114 88.1 µM | HCC 2998 > 100 µM

CN(C)c1ccc(/C=C2\N=C(c3ccc(N)cc3)OC2=O)cc1
inactive: ACHN > 100 µM | M19-MEL > 100 µM | SNB-75 > 100 µM | SK-MEL-28 > 100 µM | A498 > 100 µM | MOLT-4 > 100 µM | Malme-3M > 100 µM | OVCAR-8 > 100 µM | SF-539 > 100 µM | NCI-H460 > 100 µM | 786-0 > 100 µM | CAKI-1 > 100 µM | NCI-H226 > 100 µM | SK-OV-3 > 100 µM | DMS-114 > 100 µM | HCC 2998 > 100 µM

CCCC(=O)c1c(NOC2OCC(OC(C)=O)C(OC(C)=O)C2OC(C)=O)nc(OC)n(C)c1=O (stereo unspecified)
inactive: ACHN > 100 µM | M19-MEL > 100 µM | SNB-75 > 100 µM | SK-MEL-28 > 100 µM | A498 > 100 µM | MOLT-4 > 100 µM | Malme-3M > 100 µM | OVCAR-8 > 100 µM | SF-539 > 100 µM | NCI-H460 > 100 µM | 786-0 > 100 µM | CAKI-1 > 100 µM | NCI-H226 > 100 µM | SK-OV-3 > 100 µM | DMS-114 > 100 µM | HCC 2998 > 100 µM
